Experimental data taken from paper PMC5733478, “A Non-imaging High Throughput Approach to Chemical Library Screening at the Unmodified Adenosine-A3 Receptor in Living Cells” (Frontiers in Pharmacology, 2017).
Structures can show the parent of a compound that is named as a salt.

Experiments:
[1] = biological target: T1, human A3AR (Homo sapiens, UniProt P0DMS8); experiment: LOPAC library primary screen: single concentration (10 μM) inhibition of 25 nM CA200645 binding, PHERAstar FS
T1 construct: expressed in transfected cells
T1 sequence (P0DMS8 1-318): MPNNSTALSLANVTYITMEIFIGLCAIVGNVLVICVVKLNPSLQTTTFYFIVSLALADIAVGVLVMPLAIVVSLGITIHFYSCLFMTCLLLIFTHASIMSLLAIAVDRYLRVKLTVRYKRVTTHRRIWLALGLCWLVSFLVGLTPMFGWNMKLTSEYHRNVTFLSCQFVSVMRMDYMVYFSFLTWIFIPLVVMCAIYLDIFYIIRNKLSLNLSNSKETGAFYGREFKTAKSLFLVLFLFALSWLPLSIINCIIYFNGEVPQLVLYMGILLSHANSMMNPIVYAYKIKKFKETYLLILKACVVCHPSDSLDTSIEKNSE

[2] = biological target: T1, human A3AR; experiment: HTS (PHERAstar FS) fluorescent ligand competition binding in live CHO cells, 25 nM CA200645 tracer; settings: secondary screen of top ten hits, highest concentration 10 μM, affinity not determinable
Protocol: CHO cells stably expressing the A3AR, A1AR, β1AR or β2AR were seeded into the central 60 wells (for high content confocal analysis) or every well (high throughput analysis) of a 96-well clear-bottomed, black-walled plate (Greiner BioOne) and grown to confluency. […] Cells were incubated for 1h at 37°C/5% CO2. Buffer was then removed from each well, cells washed once in HBSS and fresh HBSS added at room temperature. Plates were then immediately subjected to high content or HTS analysis as detailed below.
High throughput analysis was performed using a PHERAstar FS plate reader (BMG Technologies). […] Optimal focal height was determined automatically and total fluorescence intensity was assessed by taking 81 reads per well.
Competition binding curves were fitted to the following equation using GraphPad Prism 5 (GraphPad Software): […]
where [L] is the concentration and KD is the equilibrium dissociation constant of the fluorescent ligand.

Compound	% 25 nM CA200645 binding [1]	also measured
C[C@]12CC[C@@H]3c4ccc(O)cc4C[C@@H](CCCCCCCCC[S+]([O-])CCCC(F)(F)C(F)(F)F)[C@H]3[C@@H]1CC[C@@H]2O (stereo partly shown) [Fulvestrant]	100.4 ± 12.1%	
O=C(CCc1ccc(O)cc1)c1c(O)cc(O)cc1O [Phloretin]	67.7 ± 15.2%	
N[C@@H](C(=O)N[C@@H]1C(=O)N2C(C(=O)O)=C(Cl)CS[C@H]12)c1ccccc1 [Cefaclor]	79.3 ± 20.7%	
CN1CCC(=C2c3ccccc3CC(=O)c3sccc32)CC1 [Ketotifen fumarate]	93.8 ± 4.0%	
CNCCCC12CCC(c3ccccc31)c1ccccc12 [Maprotiline hydrochloride]	93.0 ± 35.9%	
O=c1c(O)c(-c2cc(O)c(O)c(O)c2)oc2cc(O)cc(O)c12 [Myricetin]	62.7 ± 9.0%	
NC(CP(=O)(O)O)C(=O)O (racemic) [(±)-2-Amino-3-phosphonopropionic acid]	96.0 ± 3.9%	
Nc1nc(Cl)nc2c1ncn2[C@@H]1O[C@H](CO)[C@@H](O)[C@H]1O [2-CADO, reference compound]		% Total CA200645 binding [1]: 51.0 ± 6.7%
C=CCc1ccccc1OCC(O)CNC1(C)CCC(C(C)(C)NC(=O)CBr)CC1 (stereo not shown) [Bromoacetyl alprenolol menthane]	102.8 ± 4.8%	
CCNC(=O)[C@H]1O[C@@H](n2cnc3c(N)nc(NCCc4ccc(CCC(=O)O)cc4)nc32)[C@H](O)[C@@H]1O [CGS 21680, reference compound]		hit in LOPAC primary screen (inhibited the binding of CA200645 by >40%) [1]: not identified as hits
Cl.OC1CCCCC1N1CCC(c2ccccc2)CC1 (racemic) [(±)-Vesamicol hydrochloride]	112.9 ± 7.4%	
O=C(Nc1ccc([N+](=O)[O-])cc1Cl)c1cc(Cl)ccc1O [Niclosamide]	101.6 ± 22.5%	
CN(C)C(=O)[C@H](O)[C@H](Cc1ccccc1)NC(=O)c1cc2cc(Cl)ccc2[nH]1 [CP-91149]	87.6 ± 14.6%	
O=c1c(O)c(-c2ccc(O)c(O)c2)oc2cc(O)cc(O)c12 [quercetin]		displacement of CA200645 binding at the A3AR in full inhibition curves [2]: only displaced the binding of CA200645 at the highest concentration tested
CNCC(O)c1ccc(O)cc1 (racemic) [(±)-Synephrine]	90.7 ± 28.9%	
O=C(O)C1CCNCC1 [Isonipecotic acid]	88.5 ± 19.5%	
Cl.NC1C=CC=C(C(=O)O)C1 (stereo not shown) [Gabaculine hydrochloride]	97.5 ± 8.4%	
Cc1cc(C(C)(C)C)cc(C)c1CC1=NCCN1 [Xylometazoline hydrochloride]	106.7 ± 10.4%	
S=C(Nc1ccccc1)Nc1nccs1 [1-Phenyl-3-(2-thiazolyl)-2-thiourea]	94.0 ± 11.6%	
CC(C)NCC(O)COc1cccc2[nH]ccc12 (stereo not shown) [Pindolol]	84.7 ± 11.8%	
N[C@@H](COP(=O)(O)O)C(=O)O [O-Phospho-L-serine]	93.4 ± 14.4%	
CNc1ncnc2c1ncn2[C@H]1C[C@H](OP(=O)(O)O)[C@@H](COP(=O)(O)O)O1 [MRS 2179]	108.4 ± 2.3%	
